Data as given in PMC9234956 (Journal of Medicinal Chemistry, 2022).
Numbering of substitutions follows the chain as printed. Where a name gives a salt, the structure may show the parent alone. Read-outs that look alike come from different tables or passages of the source. Marks after values point to notes of the source that are not given here. Each block holds one compound with its values, some of them ahead of it.

Legend:
[1] = rat, Tris salt, fasted
[2] = monkey, 5.0 mg/kg po, Tris salt, fasted
human GLP-1R [3] = molecular target: T1, human GLP-1R (Homo sapiens, UniProt P43220); experiment: βArr1 recruitment, DiscoverX PathHunter cell line, buffer with 0.1% BSA; format: cell-based; conditions: buffer containing 0.1% BSA
T1 sequence (P43220 24-463): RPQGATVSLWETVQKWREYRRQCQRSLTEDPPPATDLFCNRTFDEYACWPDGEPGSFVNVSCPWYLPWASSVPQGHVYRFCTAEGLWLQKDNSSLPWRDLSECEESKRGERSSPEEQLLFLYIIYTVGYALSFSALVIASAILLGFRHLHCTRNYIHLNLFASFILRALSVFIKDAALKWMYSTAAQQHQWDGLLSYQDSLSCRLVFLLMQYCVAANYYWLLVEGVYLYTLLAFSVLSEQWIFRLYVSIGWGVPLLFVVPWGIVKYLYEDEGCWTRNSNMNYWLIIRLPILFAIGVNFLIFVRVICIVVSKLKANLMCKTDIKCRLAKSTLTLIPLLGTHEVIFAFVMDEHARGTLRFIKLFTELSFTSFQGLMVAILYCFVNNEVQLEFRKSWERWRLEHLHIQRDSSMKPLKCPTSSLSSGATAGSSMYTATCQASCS

human GLP-1R [4] = molecular target: T1, human GLP-1R; experiment: βArr2 recruitment, DiscoverX PathHunter cell line, buffer with 0.1% BSA; format: cell-based; conditions: for βArr2 slope: buffer containing 0.1% BSA
human GLP-1R [5] = molecular target: T1, human GLP-1R; conditions: for SA cAMP – BETP slope: slope of concentration-response curve
human GLP-1R [6] = molecular target: T1, human GLP-1R
human GLP-1R [7] = molecular target: T1, human GLP-1R; experiment: cAMP assay in candidate selection; conditions: for CS cAMP slope: slope of concentration-response curve
human GLP-1R [8] = molecular target: T1, human GLP-1R; experiment: BETP-sensitized cAMP screening assay; format: cell-based; conditions: for SA cAMP + BETP slope: slope of concentration-response curve
[9] = Intrinsic metabolic clearance in human liver microsomes; format: in vitro ADME; conditions: scaled from in vitro half-life; for CLint scaled: human, liver microsomes, HLM CLint
[10] = Intrinsic metabolic clearance in cryopreserved human hepatocytes; format: in vitro ADME
human GLP-1R [11] = molecular target: T1, human GLP-1R; conditions: assay medium
rat GLP-1R = molecular target: T2, rat GLP-1R (Rattus norvegicus, UniProt P32301); experiment: cAMP accumulation, CHO cells expressing rat GLP-1R; format: cell-based
T2 sequence (P32301 22-463): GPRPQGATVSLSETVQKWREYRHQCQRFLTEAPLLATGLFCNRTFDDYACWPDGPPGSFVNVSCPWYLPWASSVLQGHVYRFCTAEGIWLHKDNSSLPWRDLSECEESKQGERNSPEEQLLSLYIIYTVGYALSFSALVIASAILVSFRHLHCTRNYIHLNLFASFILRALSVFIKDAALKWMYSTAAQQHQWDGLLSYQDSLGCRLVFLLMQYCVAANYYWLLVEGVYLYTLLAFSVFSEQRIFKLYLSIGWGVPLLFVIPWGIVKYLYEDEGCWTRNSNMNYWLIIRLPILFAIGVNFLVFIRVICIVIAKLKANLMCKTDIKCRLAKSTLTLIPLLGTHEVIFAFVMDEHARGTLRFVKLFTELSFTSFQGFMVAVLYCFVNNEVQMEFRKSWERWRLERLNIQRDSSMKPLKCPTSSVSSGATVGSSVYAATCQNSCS

rabbit GLP-1R = molecular target: T3, rabbit GLP-1R (Oryctolagus cuniculus, UniProt G1SGD4); experiment: cAMP accumulation, CHO cells expressing rabbit GLP-1R; format: cell-based
T3 sequence (G1SGD4 24-462): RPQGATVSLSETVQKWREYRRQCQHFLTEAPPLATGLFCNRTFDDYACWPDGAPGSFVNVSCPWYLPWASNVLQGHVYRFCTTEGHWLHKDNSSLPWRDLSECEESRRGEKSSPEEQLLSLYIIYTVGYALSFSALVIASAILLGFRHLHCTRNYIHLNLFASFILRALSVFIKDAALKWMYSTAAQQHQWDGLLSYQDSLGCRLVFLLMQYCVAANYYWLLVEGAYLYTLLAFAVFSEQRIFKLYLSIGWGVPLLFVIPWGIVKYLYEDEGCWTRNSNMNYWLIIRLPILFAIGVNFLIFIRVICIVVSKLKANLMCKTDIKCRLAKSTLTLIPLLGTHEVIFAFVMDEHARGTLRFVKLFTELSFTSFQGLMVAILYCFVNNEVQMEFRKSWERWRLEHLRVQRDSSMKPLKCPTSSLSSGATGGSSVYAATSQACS

mouse GLP-1R = molecular target: T4, mouse GLP-1R (Mus musculus, UniProt O35659); experiment: cAMP accumulation, CHO cells expressing mouse GLP-1R; format: cell-based
T4 sequence (O35659 22-463): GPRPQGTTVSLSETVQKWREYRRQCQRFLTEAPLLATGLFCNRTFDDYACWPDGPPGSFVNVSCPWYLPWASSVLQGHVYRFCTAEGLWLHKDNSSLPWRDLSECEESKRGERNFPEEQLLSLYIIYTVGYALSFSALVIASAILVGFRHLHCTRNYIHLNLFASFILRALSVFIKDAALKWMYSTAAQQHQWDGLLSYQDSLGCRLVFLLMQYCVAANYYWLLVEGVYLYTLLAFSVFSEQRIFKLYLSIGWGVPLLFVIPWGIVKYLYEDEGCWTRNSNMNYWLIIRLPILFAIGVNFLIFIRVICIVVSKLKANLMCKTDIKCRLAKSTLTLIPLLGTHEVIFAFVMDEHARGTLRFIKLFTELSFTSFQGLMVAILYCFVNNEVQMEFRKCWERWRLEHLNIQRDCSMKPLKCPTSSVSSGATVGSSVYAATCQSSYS

cynomolgus monkeys [12] = experiment: Cynomolgus monkey food intake; format: in vivo; conditions: 2.9 mg/kg subcutaneous once daily for 2 days
GFP-tagged human GLP-1R = GFP-tagged human GLP-1R (Homo sapiens, UniProt P43220); experiment: Confocal microscopy of GFP-tagged human GLP-1R in HEK 293 cells; format: cell-based; conditions: stimulation for 30 min; reversible following a 2 h washout
GFP-tagged human GLP-1R, sequence (P43220 24-463): as the sequence (P43220 24-463) above

human GLP-1R [13] = molecular target: T1, human GLP-1R; remark: listed apart in the source
mouse GLP-1R S33W = molecular target: T5, mouse GLP-1R S33W (Mus musculus, UniProt O35659, S33W)
T5 sequence (O35659 22-463 S33W): T4 sequence (O35659 22-463) with S12W

[14] = single oral doses 3–300 mg, fasted
human GLP-1R [15] = molecular target: T1, human GLP-1R; conditions: relative to liraglutide; HEK 293 FAP-GLP1R
in vivo [16] = conditions: male, Wistar-Han, rat, plasma, iv, 1 mg/kg
in vivo [17] = conditions: male, cynomolgus monkey, plasma, iv, 1 mg/kg
cynomolgus monkeys [18] = experiment: Intravenous glucose tolerance test; conditions: iv infusion
human GLP-1R W33S = human GLP-1R W33S (Homo sapiens, UniProt P43220, W33S); experiment: cAMP, functional assessment of GLP-1R mutants: human W33S
human GLP-1R W33S, sequence (P43220 24-463 W33S): as the sequence (P43220 24-463) above, with W10S counted along it

[19] = test system: healthy adult participants; experiment: Phase 1 first-in-human single ascending dose study: safety

CLint scaled [9]: < 11 mL/min/kg
SA cAMP – BETP slope (human GLP-1R [5]): 0.75 ± 0.18
βArr2 + BETP slope (human GLP-1R [11]): 0.93 (0.98, 0.88)
Compound: Cn1c(CN2CCC(c3cccc(OCc4ccc(Cl)cc4F)n3)CC2)nc2nccc(NCC(=O)O)c21 [compound 4]
SA cAMP + BETP slope (human GLP-1R [8]): 0.76 ± 0.058

CLint scaled [9]: 29 ± 4.4 mL/min/kg
SA cAMP – BETP slope (human GLP-1R [5]): 1.1 ± 0.17
βArr2 + BETP slope (human GLP-1R [11]): 0.69 ± 0.13
agonist character in CS cAMP assay (human GLP-1R [7]): full agonist
fold less potent in CS cell line than in SA (human GLP-1R [7]; CS vs SA cAMP EC50): ~20 fold
CS cAMP slope (human GLP-1R [7]): 1 ± 0.14
Compound: Cn1c(CN2CCC(c3cccc(OCc4ccc(Cl)cc4F)n3)CC2)nc2ccc(C(=O)O)nc21 [compound 5]
SA cAMP + BETP slope (human GLP-1R [8]): 0.97 ± 0.15

βArr1 slope (human GLP-1R [3]): 0.90 ± 0.067
agonist character in βArr2 recruitment (human GLP-1R [4]): partial agonist
βArr2 slope (human GLP-1R [4]): 1 ± 0.18
effect on cAMP levels (rat GLP-1R): did not increase cAMP levels
effect on cAMP levels (rabbit GLP-1R): did not increase cAMP levels
effect on cAMP levels (mouse GLP-1R): did not increase cAMP levels
SA cAMP – BETP slope (human GLP-1R [5]): 1.1 ± 0.11
[125I]GLP-1 binding slope (human GLP-1R [13]): 0.70 ± 0.099
[3H]PF-06883365 binding slope (human GLP-1R [6]): 1 ^b
cAMP signaling at mouse GLP-1R S33W (mouse GLP-1R S33W; listed as Danuglipron): restored
increase of plasma exposure (Cmax, AUCinf) with dose [14]: approximately dose-proportional
Bias factor (toward cAMP), cAMP vs Internalization (human GLP-1R [15]): 3.6
clearance at 24 h (in vivo [16]): 57.3 ± 8.68 mL/min/kg
half-life (in vivo [16]): 1.1 h
clearance at 24 h (in vivo [17]): 13.8 mL/min/kg
half-life (in vivo [17]): 1.9 h
cAMP signaling at human GLP-1R W33S (human GLP-1R W33S): failed to induce signaling
cAMP signaling at human GLP-1R W33S (human GLP-1R W33S; listed as Danuglipron): negated
agonist character in CS cAMP assay (human GLP-1R [7]): full agonist
CS cAMP slope (human GLP-1R [7]): 1.1 ± 0.14
Compound: N#Cc1ccc(COc2cccc(C3CCN(Cc4nc5ccc(C(=O)O)cc5n4C[C@@H]4CCO4)CC3)n2)c(F)c1 [danuglipron, (S)-2-[(4-{6-[(4-Cyano-2-fluorobenzyl)oxy]pyridin-2-yl}piperidin-1-yl)methyl]-1-(oxetan-2-ylmethyl)-1H-benzo[d]imidazole-6-carboxylic Acid]
SA cAMP + BETP slope (human GLP-1R [8]): 0.98 ± 0.029
food intake versus vehicle (cynomolgus monkeys [12]): inhibited food intake
intracellular accumulation of GFP-GLP-1R (GFP-tagged human GLP-1R): marked intracellular accumulation of the GFP-GLP-1R
cAMP signaling at mouse GLP-1R S33W (mouse GLP-1R S33W): increased the level of accumulation of cAMP
insulin secretion during IVGTT (cynomolgus monkeys [18]): increase in the rate of insulin secretion
rate of glucose disappearance (K value) during IVGTT (cynomolgus monkeys [18]): increased the rate of glucose disappearance
insulin secretion during IVGTT (cynomolgus monkeys [18]; listed as Danuglipron): enhanced insulin secretion
post-dose fasting serum glucose levels ([19]; after single doses, healthy participants): remained within the normal reference range
tolerability after po administration under fasted conditions ([19]; single doses 3 to 300 mg, healthy adults): generally well tolerated

More lines, now with the values behind:

Compound: N#Cc1ccc(COc2cccc(C3CCN(Cc4nc5ccc(C(=O)O)cc5n4C[C@@H]4CCO4)CC3)n2)c(F)c1 [Danuglipron, Tris salt, (S)-2-[(4-{6-[(4-Cyano-2-fluorobenzyl)oxy]pyridin-2-yl}piperidin-1-yl)methyl]-1-(oxetan-2-ylmethyl)-1H-benzo[d]imidazole-6-carboxylic Acid]
oral F ([1]; 5.0 mg/kg po): 11 (10, 12) %
oral F ([1]; 100 mg/kg po): 39 (37, 44) %
oral F [2]: 5.0 (4.0, 6.0) %

Compound: CCn1cncc1Cn1c(CN2CCC(c3cccc(OCc4ccc(F)cc4F)n3)CC2)nc2ccc(C(=O)O)cc21 [PF-06883365]
βArr1 slope (human GLP-1R [3]): 0.94 ± 0.013
βArr2 slope (human GLP-1R [4]): 0.79 ± 0.12
SA cAMP – BETP slope (human GLP-1R [5]): 0.98 ± 0.12
[3H]PF-06883365 binding slope (human GLP-1R [6]): 1.0 ± 0.15
CS cAMP slope (human GLP-1R [7]): 1.1 ± 0.19

Compound: Cn1c(CN2CCC(c3nc(OCc4ccc(Cl)cc4F)ncc3F)CC2)nc2ccccc21 [compound 2]
SA cAMP + BETP slope (human GLP-1R [8]): 1.3 ± 0.75
CLint scaled [9]: > 150 mL/min/kg
hHEP CLint [10]: 48 (n = 1) μL/min/million
GLP-1R agonist activity in the unpotentiated cAMP SA (human GLP-1R [5]; without BETP): inactive

Compound: Cn1c(CN2CCC(c3cccc(OCc4ccc(Cl)cc4F)n3)CC2)nc2ccncc21 [compound 3]
fold more potent than HTS hit 2 (human GLP-1R [8]; SA + BETP EC50): > 100 fold
SA cAMP + BETP slope (human GLP-1R [8]): 0.89 ± 0.17
CLint scaled [9]: 130 mL/min/kg
HLM CLint [9]: 140 ± 46 (n = 3) mL/min/kg
hHEP CLint [10]: 55 (n = 1) μL/min/million
SA cAMP – BETP slope (human GLP-1R [5]): 1.2 ± 0.26
βArr2 + BETP slope (human GLP-1R [11]): 0.97 ± 0.10
